# Test results: patent publication US11077205B2, “Synthetic compound for improving efficiency of transfection” (Klinikum der Universität München, priority 2016, dated 2021)
# Where no end group is shown, it is not given here. The star is where a group is joined. ξ: configuration not given here. Lipoyl(6ξ) = O=C(CCCCC1CCSS1)*
# Experiments:
# [1] = normalized: most hydrophobic residue 100, glycine 0, cited from earlier work; for hydrophobicity index At pH 2: from Sereda et al. 1994; for hydrophobicity index At pH 7: from Monera et al. 1995
# 16HBE cells [2] = experiment: In vitro transfection, Metridia luciferase assay in 16HBE cells; format: cell-based, human
# BEAS-2B cells [3] = experiment: In vitro transfection, Metridia luciferase assay in BEAS-2B cells; format: cell-based, human; conditions: for pDNA transfection efficiency of P704 ternary complex (in words): MetLuc pDNA, P704 50 (w/w), FIG. 14a
# Method: (§1) Preparation of IVT-mRNA/pDNA containing binary and ternary complexes: Stock solutions of P704 (5 mg/ml) and synthetic compound (1 mg/ml) were prepared in nuclease-free water (NF water) and stored at 4° C. P704 based binary complexes (P704/IVT-mRNA or P704/pDNA) were prepared by mixing equal volumes of diluted P704 stock solution with IVT-mRNA or pDNA solution at the desired concentration in 2× Tyrode's solution. Ternary complexes were generated via two-steps incubation. Briefly, P704 solutions at certain concentration (defined as weight/weight (w/w) ratio between P704 and nucleic acids) in NF-water were mixed with equal volume of synthetic compound solution at specific concentration (defined as N/P ratio, namely the […] between nitrogen residues in synthetic compound and nucleic acids phosphate groups). After 20 min incubation at room temperature (RT), same volumes of nucleic acid (IVT-mRNA or pDNA) solution in NF-water were added to the above P704/synthetic compound solution and mixed gently by pipetting up and down several times. Subsequently, complexes were incubated for another 20 min at RT prior to further use. IVT-mRNA or pDNA solutions in NF-water were complexed with brPEI (25 kDa) at an optimum N/P ratio, the resulting complexes were served as a control polyplex. As for control lipoplex, Lipofectamine® 2000 complexes were prepared according to the manufacturer's instructions using optimum concentration. In order to prepare DOTAP/DOPE liposomes, a lipid film was formed by removing the chloroform solvent in DOTAP/DOPE mixture solution under nitrogen atmosphere. The lipid film is hydrated with NF-water to make the final concentration 10 mM DOTAP/DOPE. The DOTAP/DOPE liposome formulation was formed by mixing 250 μl of pDNA encoding for firefly luciferase and cystic fibrosis transmembrane conductance regulator (fLUC-CFTR pDNA) (150 μg) containing solution and 250 μl diluted DOTAP/DOPE solution (190 μl of 10 mM DOTAP/DOPE liposome and 60 μl NF-water). The mix solution was incubated at RT for 20 min prior to further use.
# (§2) In vitro transfection: For the luciferase assay, cells were seeded at a density of 1.8×10^4/well (BEAS-2B) or 3.5×10^4/well (16HBE) in 96-well plates 24 h before transfection to reach 60-80% confluence. Following removal of growth medium, cells were rinsed with DPBS (Gibco, Germany). 170 μl of fresh serum-free OptiMEM (Gibco, Germany) were added per well, and subsequently 30 μl of IVT-mRNA or pDNA containing complexes prepared, as described above, corresponding to 400 ng IVT-mRNA or pDNA per well, were added in replicates of five. After 4 h of incubation at 37° C. in a humidified 5% CO2-containing atmosphere, the transfection medium was replaced with culture medium supplemented with 10% FBS and 1% (v/v) penicillin/streptomycin. Luciferase activity in 50 μl supernatants from transfected cells was assayed with Metridia luciferase substrate (coelenterazine, Invivogen, France) after 24 h using a FLUOstar microplate reader (BMG Labtech, Germany) and its activity is expressed in relative light units (RLU). In all cases each sample was measured on at least two other occasions to ensure the reproducibility of the data.
# The same transfection procedure as described above was applied. Luciferase activity was expressed in RLU. The data are given as the mean±standard deviation (SD) of the mean (n>5) in FIGS. 12a to 12k.
# (§3) The concentration of P704 in ternary complexes for treatment of BEAS-2B cells was 50 (w/w) and the concentration of P704 in ternary complexes for treatment of 16HBE cells was 63 (w/w). The N/P ratios of the compounds in ternary complexes were as follows:
# BEAS-2B cells: Compound 0 (DL) at 30, compound 1 at 20, compounds 3 and 11 at 15, compounds 4 and 6 at 10, compounds 2 and 9 at 5, compounds 5, 7, 8 and 10 at 2.5.
# The same transfection procedure as described above was applied. Luciferase activity was expressed in RLU. […]
# 16HBE cells [4] = experiment: In vitro transfection, Metridia luciferase assay in 16HBE cells; format: cell-based, human; conditions: for pDNA transfection efficiency of P704 ternary complex (in words): MetLuc pDNA, FIG. 14b
# Method: as §1
# as §2, with “data. […]” for “data.”
# as §3
# 16HBE cells: Compound 0 (DL) at 20, compounds 1 and 11 at 15, compounds 2 and 3 at 10, compounds 4, 6, 8, and 9 at 5, compounds 5, 7, and 10 at 2.5.
# The same transfection procedure as described above was applied.
# The concentration of P704 in ternary complexes was 63 (w/w). The N/P ratio of the compounds in certain ternary complexes was as follows:
# 16HBE cells: Compound 1, 8, and 11 at 20; compound 0 (DL) and 3 at 10; compound 2 at 7.5; compounds 4, 6, 9, and 10 at 5, compounds 5 and 7 at 2.5. […]
# BEAS-2B cells [5] = experiment: In vitro transfection, Metridia luciferase assay in BEAS-2B cells; format: cell-based, human; conditions: for pDNA expression compared with compound 0 containing ternary complexes: day 3
# airway epithelium cells = experiment: In vitro transfection study on cultured airway epithelium cells (luciferase, RLU/mg cellular protein); format: cell-based; conditions: ternary complexes formed by P704, a nucleic acid and the compound
# Method: as §2, with “Luciferase activity in 50 μl supernatants from transfected cells was” left out, “[…]).” for “Germany) and its activity is expressed in relative light units (RLU).”
# [6] = MetLuc pDNA, P704 ternary complex, day 3, optimum composition
# [7] = MetLuc mRNA, optimum composition
Compound,hydrophobicity index At pH 2 [1],hydrophobicity index At pH 7 [1],further results
"CC[C@H](C)[C@H](N)C(=O)O [Isoleucine (ile), Isoleucine]",100,99,
"N[C@@H](Cc1ccccc1)C(=O)O [Phenylalanine (phe), Phenylalanine]",92,100,
DL-lipoic acid-WLHHHKKLLHHHKKL-GACSERSMNFCG ({Lipoyl(6ξ)}-WLHHHKKLLHHHKKLGACSERSMNFCG; cysteine pairing not given here) [compound 8],,,"luciferase expression of ternary complexes with P304 and MetLuc mRNA (16HBE cells [2]; P304 2000 (w/w), high N/P ratio, even higher than compound 9, FIG. 25a): rather high luciferase expression"
DL-lipoic acid-WKKKKRRRRRKKKK-GACSERSMNFCG ({Lipoyl(6ξ)}-WKKKKRRRRRKKKKGACSERSMNFCG; cysteine pairing not given here) [compound 4],,,pDNA transfection efficiency of P704 ternary complex (in words) (BEAS-2B cells [3]; optimum N/P): similar
"N[C@@H](Cc1c[nH]c2ccccc12)C(=O)O [Tryptophan (trp), Tryptophan]",84,97,
"N[C@@H](Cc1c[nH]cn1)C(=O)O [Histidine (his), Histidine]",−42,8,
"NCCCC[C@H](N)C(=O)O [Lysine (lys), Lysine]",−37,−23,
"O=C(O)CCCCC1CCSS1 (racemic) [compound 2, DL-lipoic acid, reference compound]",,,"IVT-mRNA transfection efficiency of P704 ternary complex (in words) (BEAS-2B cells [3]; MetLuc mRNA, P704 63 (w/w), optimum N/P, FIG. 17a): rather low transfection efficiency; pDNA transfection efficiency of P704 ternary complex (in words) (BEAS-2B cells [3]; optimum N/P): rather low transfection efficiency; IVT-mRNA transfection efficiency of P704 ternary complex (in words) (16HBE cells [4]; MetLuc mRNA, P704 63 (w/w), optimum N/P, FIG. 17b): rather low transfection efficiency; pDNA transfection efficiency of P704 ternary complex (in words) (16HBE cells [4]; P704 63 (w/w), optimum N/P): rather low transfection efficiency"
"CC(C)[C@H](N)C(=O)O [Valine (val), Valine]",79,76,
DL-lipoic acid-WKKKKRRRRRKKKK-GACYGLPHKFCG ({Lipoyl(6ξ)}-WKKKKRRRRRKKKKGACYGLPHKFCG; cysteine pairing not given here) [compound 5],,,pDNA expression compared with compound 0 containing ternary complexes (BEAS-2B cells [5]): slightly better; pDNA transfection efficiency of P704 ternary complex (in words) (BEAS-2B cells [3]; optimum N/P): similar
"N[C@@H](CS)C(=O)O [Cysteine (cys), Cysteine]",52,49,
"CSCC[C@H](N)C(=O)O [Methionine (met), Methionine]",74,74,
NH2-VKRKKKPKKRRRRKK-CONH2 (H-VKRKKKPKKRRRRKK-NH2) [compound 1],,,"pDNA transfection, share of maximum signal intensity of compound 0 counterpart (BEAS-2B cells [5]; [6]): 7%; IVT-mRNA transfection efficiency relative to P704/compound 0/IVT-mRNA complex (BEAS-2B cells [3]; [7]): one third; IVT-mRNA transfection efficiency relative to P704/compound 0/IVT-mRNA complex (16HBE cells [4]; [7]): one third; pDNA transfection, share of maximum signal intensity of compound 0 counterpart (16HBE cells [2]; [6]): half"
"N[C@@H](Cc1ccc(O)cc1)C(=O)O [Tyrosine (tyr), Tyrosine]",49,63,
"NC(=O)C[C@H](N)C(=O)O [Asparagine (asn), Asparagine]",−41,−28,
"C[C@H](N)C(=O)O [Alanine (ala), Alanine]",47,41,
DL-lipoic acid-WKKRRRRRRRRKK-GACYGLPHKFCG ({Lipoyl(6ξ)}-WKKRRRRRRRRKKGACYGLPHKFCG; cysteine pairing not given here) [compound 7],,,pDNA expression compared with compound 0 containing ternary complexes (BEAS-2B cells [5]): slightly better; pDNA transfection efficiency of P704 ternary complex (in words) (BEAS-2B cells [3]; optimum N/P): similar
DL-lipoic acid-WKKRRRRRRRRRKK-GACSERSMNFCG ({Lipoyl(6ξ)}-WKKRRRRRRRRRKKGACSERSMNFCG; cysteine pairing not given here) [compound 6],,,"pDNA transfection efficiency of P704 ternary complex (in words) (16HBE cells [4]; P704 63 (w/w), optimum N/P): overwhelming signals"
NH2-VKRKKKPKKRRRRKKWK(R-lipoic acid)-CONH2 (H-VKRKKKPKKRRRRKKWK(R‑lipoic acid)-NH2) [compound 0 (R)],,,transfection efficiencies of ternary complexes with compound 0 (DL) versus compound 0 (R) (airway epithelium cells): similar
